Like-named read-outs stand apart in the source and are kept apart here.
Key:
[1] = test system: IDO1; settings: cited from earlier work
[2] = test system: Lewis lung carcinoma (LL2); set-up: method as in Pan et al., 2020; settings: ref Pan et al., 2020, cited from earlier work
[3] = test system: hepatocellular carcinoma (Hepa1-6); set-up: method as in Pan et al., 2020; settings: hepatocellular carcinoma (Hepa1-6) model; ref Pan et al., 2020; cited from earlier work
[4] = test system: IDO1; settings: read-out: IC50 in enzymatic assays, cited from earlier work
[5] = test system: TDO; set-up: method as in Rohrig et al., 2012; Rohrig et al., 2019; settings: ref Rohrig et al., 2012, 2019; cited from earlier work
[6] = test system: mouse IDO1; set-up: method as in Rohrig et al., 2012; Rohrig et al., 2019; settings: ref Rohrig et al., 2012, 2019, read-out: IC50 in cellular assays, mouse IDO1; cited from earlier work
[7] = test system: human IDO1; set-up: method as in Rohrig et al., 2012; Rohrig et al., 2019; settings: ref Rohrig et al., 2012, 2019, read-out: IC50 in cellular assays, human IDO1; cited from earlier work
[8] = 2019, cited from earlier work
[9] = test system: IDO1; set-up: method as in Alexandre et al., 2018; settings: ref Alexandre et al., 2018; read-out: IC50 in cellular assays; cited from earlier work
[10] = test system: kynurenine production; set-up: method as in Wang et al., 2019; settings: treated cells, low concentrations; ref Wang et al., 2019; cited from earlier work
[11] = test system: IDO1 in MDA-MB-231 cells; set-up: method as in Panda et al., 2019; settings: ref Panda et al., 2019; cited from earlier work
[12] = test system: dopamine D2 receptor; set-up: method as in earlier work; settings: ref Crosignani et al., 2017; González-Gutiérrez et al., 2025; Mendez-Rojas et al., 2018; cited from earlier work
[13] = test system: 5-HT reuptake; set-up: method as in earlier work; settings: ref Crosignani et al., 2017; González-Gutiérrez et al., 2025; Mendez-Rojas et al., 2018; cited from earlier work
[14] = biological target: T1, IDO1 (Homo sapiens, UniProt P14902); assay: HeLa cell-based IDO1 inhibition assay; settings: HeLa cells, 100 ng/mL human IFN-γ, 18 h, kynurenine absorbance at 480 nm
T1 construct: endogenous in cells; host or cells: HeLa cells stimulated with 100 ng/mL human IFN-γ
T1 sequence (P14902 whole entry): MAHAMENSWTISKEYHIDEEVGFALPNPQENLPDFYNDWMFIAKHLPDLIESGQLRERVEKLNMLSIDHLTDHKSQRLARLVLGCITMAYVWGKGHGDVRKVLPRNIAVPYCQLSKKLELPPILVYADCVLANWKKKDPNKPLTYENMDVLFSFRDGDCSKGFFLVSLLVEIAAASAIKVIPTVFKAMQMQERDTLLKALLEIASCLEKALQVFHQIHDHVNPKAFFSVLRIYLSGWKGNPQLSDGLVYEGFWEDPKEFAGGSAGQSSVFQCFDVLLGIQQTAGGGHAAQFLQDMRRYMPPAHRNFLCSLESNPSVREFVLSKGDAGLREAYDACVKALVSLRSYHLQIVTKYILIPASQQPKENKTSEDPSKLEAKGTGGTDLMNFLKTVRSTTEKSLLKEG
Protocol: To evaluate the IDO1 inhibitory activity of the newly synthesized derivatives, HeLa cells with high IDO1 expression were used as the experimental model. […] To perform the HeLa cell-based IDO1 inhibition assay, HeLa cells were seeded at a density of 50,000 cells per well in a 96-well microplate containing 100 μL of DMEM supplemented with 10% fetal bovine serum and 1% penicillin-streptomycin. The cells were incubated overnight at 37 °C in a humidified atmosphere with 5% CO2. The following day, 100 μL of growth medium containing diluted inhibitors and 100 ng/mL human IFN-γ was added to each well. The cells were then incubated at 37 °C in a CO2 incubator for 18 h. […] The plate was incubated at 50 °C for 30 min and then centrifuged at 2,500 rpm for 10 min to remove any sediment. Next, 100 μL of the supernatant was transferred to a separate 96-well plate and mixed with 100 μL of 2% (w/v) 4-(dimethylamino)benzaldehyde in acetic acid. After a 10-min incubation at room temperature, the absorbance of the resulting yellow color, indicative of kynurenine, was measured at 480 nm using a microplate reader.

O=C1c2cc(F)ccc2C(=O)c2c1nnn2-c1ccc(F)c(Cl)c1 [Compound 2]
IC50 ([1]; ref Pan et al., 2020, read-out: IDO1 inhibition IC50): 0.005 µM
toxicity in vivo models ([2]; LL2 and Hepa1-6 in vivo models): minimal toxicity
anti-tumor activity in vivo ([2]; Lewis lung carcinoma (LL2) model): significant anti-tumor activity
anti-tumor activity in vivo [3]: significant anti-tumor activity

Oc1ccc(Cl)cc1-c1c[nH]nn1 [Compound 3]
IC50 ([4]; ref Rohrig et al., 2012, Rohrig et al., 2019): 0.33 µM
activity against TDO [5]: no activity
IC50 [6]: 0.002 µM
IC50 [7]: 0.08 µM
cytotoxicity ([8]; cellular assays, ref Rohrig et al., 2012, Rohrig et al.): minimal cytotoxicity

Clc1ccc(Nc2c[nH]nn2)cc1 [Compound 4]
IC50 ([4]; ref Alexandre et al., 2018): 11.3 µM
IC50 [9]: 0.023 µM

COc1cccc2c1C(=O)C1=C(C[C@H](Cn3cc(-c4ccccc4)nn3)O[C@@H]1C)C2=O [Compound 5]
IC50 ([1]; ref Wang et al., 2019, read-out: potency against IDO1, IC50): 6 µM
cytotoxicity ([8]; ref Wang et al.): minimal cytotoxicity
reduction of kynurenine production [10]: over 60%

NS(=O)(=O)NCCNC(=O)c1n[nH]nc1-c1ccc(F)c(F)c1 [Compound 6]
cytotoxicity ([8]; ref Panda et al.): negligible cytotoxicity
IDO1 inhibition in MDA-MB-231 cells [11]: strong IDO1 inhibition

CC(CCN1CCN(c2cccc3c2OCC(=O)N3)CC1)c1c[nH]c2ccc(F)cc12 (stereo not drawn) [Compound 11]
dopamine D2 receptor inhibition [12]: potent
activity in inhibiting 5-HT reuptake [13]: high activity

O=C1COc2ccc(NC(=O)c3cccc(-c4cn(Cc5ccc(Br)cc5)nn4)c3)cc2N1 [Compound 14a]
IC50 [14]: 11.2 µM

Cc1cc(C)cc(Cn2cc(-c3cccc(C(=O)Nc4ccc5c(c4)NC(=O)CO5)c3)nn2)c1 [Compound 14b]
IC50 [14]: > 30 µM

O=C1COc2ccc(NC(=O)c3cccc(-c4cn(Cc5cc(F)c(F)c(F)c5)nn4)c3)cc2N1 [Compound 14c]
IC50 [14]: > 30 µM

N#Cc1ccc(F)cc1Cn1cc(-c2cccc(C(=O)Nc3ccc4c(c3)NC(=O)CO4)c2)nn1 [Compound 14d]
IC50 [14]: > 30 µM

O=C1COc2ccc(NC(=O)c3cccc(-c4cn(Cc5ccc(F)c(Cl)c5)nn4)c3)cc2N1 [Compound 14f]
IC50 [14]: 8.02 µM

O=C1COc2ccc(NC(=O)c3cccc(-c4cn(Cc5cccc(Cl)c5)nn4)c3)cc2N1 [Compound 14g]
IC50 [14]: 10.1 µM

O=C1COc2ccc(NC(=O)c3cccc(-c4cn(Cc5cc(Cl)ccc5F)nn4)c3)cc2N1 [Compound 14h]
IC50 [14]: 9.98 µM

O=C1COc2ccc(NC(=O)c3cccc(-c4cn(Cc5ccc(F)cc5)nn4)c3)cc2N1 [Compound 14i]
IC50 [14]: > 30 µM

O=C1COc2ccc(NC(=O)c3cccc(-c4cn(Cc5ccccc5F)nn4)c3)cc2N1 [Compound 14j]
IC50 [14]: > 30 µM
